Experimental data from patent publication US10513534B2, “2′-chloro nucleoside analogs for HCV infection” (priority 2012, dated 2019).
Like-named read-outs stand apart in the source and are kept apart here.

Experiments:
HCV genotype 1b replicon = assay: HCV replicon assay (Zluc luciferase); format: cell-based; settings: read-out: HCV Replicon EC50
Method in brief: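 Zluc Huh-7 cells with HCV genotype 1b replicon and luciferase reporter treated with 5-fold dilutions (100 μM to 0.0000512 μM final) in duplicate, or at 1 and 10 μM. Luminescence read with ONE-glo; EC50 from dose-response fits, or % inhibition at the fixed concentrations.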

[1] = Cytotoxicity evaluation, CellTiter-Blue Cell Viability Assay; settings: human
Huh-7 cells = assay: Release of active metabolite in Huh-7 cells; format: in vitro ADME
Description: Huh-7 cells were plated in 1 mL culture medium (DMEM, containing glucose, L-glutamine and sodium pyruvate, 10% FBS, 100 IU/mL penicillin, 100 μg/mL streptomycin, 2 mM GlutaMAX, 1% MEM non-essential amino acids) at the concentration 0.8, 0.4 and 0.2 million cells per well on 6 well plates for 24, 48 and 72 hr treatment, respectively. Plated cells were incubated overnight at 37° C. in an incubator.
The following morning test compound was diluted to 20 μM from a stock solution in DMSO in fresh culture medium pre-warmed to 37° C. and 1 mL of the solution/well was added to cells. A final medium volume per well was 2.0 mL, test compound concentration in well was 10 μM and final DMSO concentration was 0.1%.
After 24, 48 or 72 hr, the medium was carefully removed and cell monolayers were washed twice with 2 mL ice-cold PBS per well. Following the last wash, all PBS was carefully removed and 1.0 mL of extraction solution (ice-cold 70% methanol) added. The plate was tightly covered with Parafilm, plastic plate cover and Parafilm again and an intracellular content was extracted at −20° C. for 24 hr.
After 24 hr the extracts were transferred into polypropylene microfuge tubes and dry on a refrigerated centrivap concentrator. Dry residues were reconstituted in 250 μL of HPLC-grade water and centrifuged at 16,000×g for 10 min. Aliquots (100 μL each) of the supernatants were transferred into a 96 well plate and internal standard (4 ng/mL final concentration) was added as the internal standard (IS) for LC-MS/MS analysis.

[2] = Stability in intestinal microsomes; format: in vitro ADME; settings: human intestinal microsomes 1.0 mg/mL, 10 μM, NADPH, 60 min
Description: (§1) Stability of test compounds were determined in human liver and intestinal microsomes in duplicate for each matrix. Pooled liver and intestinal microsomal proteins (1.0 mg/mL), suspended in incubation buffer (100 mM potassium phosphate, pH 7.4, 5 mM MgCl2, and 0.1 mM EDTA), were preincubated for 5 min at 37° C. with 10 μM of a test compound from a 10 mM stock solution in DMSO (final DMSO concentration was 0.1%); the reaction was initiated by the addition of NADPH (3 mM final concentration). At specific times (0 and 60 min), 0.1 mL samples were taken and the reaction terminated by the addition of 4 volumes of stop solution (acetonitrile with 500 ng/mL carbutamide as an internal standard). The samples were vortexed for 30 sec and then centrifuged at 16000×g for 10 min. 100 μL of supernatants were transferred to 96 deep-well plates preloaded with 100 μL distilled water and analyzed after mixing by LC-MS/MS. The MS peak area ratio of the test compound versus the internal standard was calculated and percent unchanged test compound over 60 minutes was calculated using this ratio.

[3] = Liver triphosphate pharmacokinetics after single oral dose in CD-1 mice; format: in vivo; settings: single oral dose 10 mg/kg in PEG 200;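 on Ms Liver TP AUC: pmol·h/g liver normalized to a 1 µmol/kg dose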;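 on Ms Liver TP Cmax: pmol/g liver normalized to a 1 µmol/kg dose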
Description: (§2) Internal standard solution was added to the homogenate followed by neutralization with 20% ammonium hydroxide solution and addition of 500 μL 1% formic acid. The tissue samples were extracted by weak anion exchange solid phase extraction (SPE). Post extraction, the eluates were evaporated under nitrogen, followed by reconstitution before injection onto the LC-MS/MS system.

[4] = Stability in liver microsomes; format: in vitro ADME; settings: human liver microsomes 1.0 mg/mL, 10 μM, NADPH, 60 min
Description: as §1

in vitro = settings: human
[5] = Plasma nucleoside pharmacokinetics after single oral dose in CD-1 mice; format: in vivo; settings: single oral dose 10 mg/kg in PEG 200;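 on Ms Plasma nucleoside AUC: pmol·h/mL plasma normalized to a 1 µmol/kg dose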
Method in brief: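 Mouse plasma was extracted by acetonitrile/0.2% formic acid protein precipitation using 2′-MeG-D3 or tiapride as internal standard. Nucleoside was quantified by positive-ion LC-MS/MS after C18 gradient separation. Calibration spanned 0.500 (LLOQ) to 200 ng/mL.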

fresh mouse hepatocytes = assay: Release of active metabolite in fresh mouse hepatocytes; format: in vitro ADME; settings: 10 μM
Description: Plates of fresh human and mouse hepatocytes were obtained on ice. The medium was removed and replaced with hepatocyte culture medium (William's E supplemented with penicillin-streptomycin, 1% L-glutamine, 1% insulin-transferrin-selenium and 0.1 μM Dexamethasone (Invitrogen) or with Invitro GRO HI medium complemented with Torpedo antibiotics (Celsis)). Cells were left overnight in an incubator at 37° C. to acclimatize to culture and the medium.
Hepatocyte incubations were conducted at a final volume of 0.5 mL hepatocyte culture medium/well (0.8 million cells/well for human and 0.5 million cells/well for mouse; 12 well plate no overlay, collagen coat). Culture medium from overnight incubation of cells was removed and replaced with fresh medium, pre-warmed to 37° C., containing 10 μM of test compound from a stock solution in DMSO (final DMSO concentration was 0.1%). At each specific time point, incubation medium was removed and cell monolayers were carefully washed two times with ice-cold PBS. Following the last wash, all PBS was carefully removed and 1.0 mL of extraction solution (ice-cold 70% methanol/30% water) added. Cells were scraped off and suspended in the extraction solution, transferred to 2 mL polypropylene microfuge tubes and intracellular contents extracted overnight at −20° C.
After the overnight treatment the cellular extracts were prepared by centrifugation at 16,000×g for 10 min to remove cellular debris. The remaining sample was then dried using a refrigerated centrivap concentrator. Dry extracts were reconstituted in 1000 μL of HPLC-grade water and centrifuged at 16,000×g for 10 min. Aliquots (100 μL each) of the supernatant were transferred into a 96 well plate and internal standard (4 ng/mL final concentration) was added as the internal standard (IS) for LC-MS/MS analysis.
The incubation time points were 6, 24 and 48 hours for human hepatocytes and 1, 4, 8, 12 and 24 hours for mouse hepatocytes.

[6] = Liver triphosphate pharmacokinetics after single oral dose in cynomolgus monkeys; format: in vivo
Description: (§3) For each compound, a single oral dose at 10 mg/kg in PEG 200 (dose volume 3 mL/kg) was administered to cynomolgus monkeys. Untreated animals were used for the collection of control liver. Plasma samples were collected at 0.5, 1, 2, 4, 6, 8, 12 and 24 hours for compound 37, diastereomer 2.
as §2, with “Liver samples were analyzed for the relevant nucleoside triphosphate by LC-MS/MS. […] Appropriate internal” for “Internal”

[7] = Plasma prodrug and nucleoside pharmacokinetics after single oral dose in cynomolgus monkeys; format: in vivo; settings: single oral 10 mg/kg
Description: as §3
Plasma samples were analyzed for the prodrug and nucleoside by LC-MS/MS. For protein precipitation and extraction, each plasma sample (50 μL) was treated with 500 μL of 0.2% formic acid in acetonitrile and 20 μL of an appropriate internal standard working solution. After vortexing and centrifugation, 500 µL of the sample extracts were transferred to a new plate, dried under N2 at ˜28° C. and reconstituted with 75 μL of 0.2% FA in water. The extracts were chromatographed on an Aquasil C18 column using a gradient system of 0.2% formic acid in water and acetonitrile. The analytes were detected and quantified by tandem mass spectrometry in positive ion mode on an MDS Sciex API4000 equipped with a Turbo Ionspray® interface.

Zluc cells = assay: Cytotoxicity evaluation, CellTiter-Blue Cell Viability Assay; settings: Zluc cells, CellTiter-Blue
[8] = single oral 10 mg/kg, normalized to 1 μmol/kg dose

Row | SMILES | EC50 (HCV genotype 1b replicon; Hepatitis C virus, 72 h) [µM] | CC50 [1] [µM] | HIM (1 hr) stability (percent remaining) [2] | Ms Liver TP AUC [3] | Ms Liver TP Cmax [3] | HLM (1 hr) stability (percent remaining) [4] | Ms Plasma nucleoside AUC [5] | Ms Plasma nucleoside Cmax [5] | EC50 (HCV genotype 1b replicon; Zluc cells, 72 hours) [µM] | MsH AUC (fresh mouse hepatocytes) | MsH Cmax (fresh mouse hepatocytes) | further results
1 | CCOC(=O)COP(=O)(OC[C@H]1O[C@@H](n2ccc(=O)[nH]c2=O)[C@](C)(Cl)[C@@H]1O)Oc1ccccc1 (mixture of isomers) [Compound 72 Mixture of P-Diastereoisomers] | > 10 | > 50 |  |  |  |  |  |  |  |  |  | 
2 | CC(C)OC(=O)[C@H](C)NP(=O)(OC[C@H]1O[C@@H](n2ccc(=O)[nH]c2=O)[C@](C)(Cl)[C@@H]1O)Oc1ccccc1 (single isomer, unassigned) [Compound 40ii Diastereomer 1] |  |  | +++ (50% < +++ ≤ 75%) | +++ (500 < +++ ≤ 1500) | +++ (50 < +++ ≤ 100) | + (+ ≤ 25%) | +++ (500 < +++ ≤ 1500) | +++ (50 < +++ ≤ 100) | 1 to 10 |  |  | Huh-7 TP AUC (Huh-7 cells; 10 μM): ++++ (1500 < ++++); Huh-7 TP Cmax (Huh-7 cells; 10 μM test compound): ++++ (100 < ++++); Huh-7 TP (24 hr) (Huh-7 cells; 10 μM, 24 hr): ++ (15 < ++ ≤ 50); Huh-7 TP (48 hr) (Huh-7 cells; 10 μM, 48 hr): +++ (50 < +++ ≤ 100); Huh-7 TP (72 hr) (Huh-7 cells; 10 μM, 72 hr): ++++ (100 < ++++); CC50 (in vitro): > 50 µM
3 | CCOC(=O)COP(=O)(OC[C@H]1O[C@@H](n2ccc(=O)[nH]c2=O)[C@](C)(Cl)[C@@H]1O)Oc1ccccc1 (single isomer, unassigned) [Compound 72 Diastereomer 1] | > 10 | > 50 |  |  |  |  |  |  |  |  |  | 
4 | CC(C)OC(=O)[C@@H](C)NP(=O)(OC[C@H]1O[C@@H](n2ccc(=O)[nH]c2=O)[C@](C)(Cl)[C@@H]1O)Oc1ccccc1 (single isomer, unassigned; diastereomer 1) [Compound 40i Diastereomer 1] |  |  | +++ (50% < +++ ≤ 75%) |  |  | + (+ ≤ 25%) | +++ (500 < +++ ≤ 1500) | +++ (50 < +++ ≤ 100) | > 10 | ++++ (1500 < ++++) | ++++ (100 < ++++) | Nucleoside triphosphate in Liver C6 ([6]; 6 hours post dose, 10 mg/kg oral, normalized to 1 μmol/kg dose): ++++ (100 < ++++); Nucleoside triphosphate in Liver Tmax ([6]; single oral 10 mg/kg): 6 h; Nucleoside triphosphate in Liver AUC0-24 [6, 8]: ++++ (1500 < ++++); Nucleoside triphosphate in Liver Cmax [6, 8]: ++++ (100 < ++++); Plasma nucleoside Tmax [7]: 6 h; Plasma prodrug Tmax [7]: 2 h; Plasma nucleoside AUC0-24 ([7]; normalized to 1 μmol/kg dose): ++ (150 < ++ ≤ 500); Plasma prodrug AUC0-24 ([7]; normalized to 1 μmol/kg dose): + (+ ≤ 150); Cmax ([7]; normalized to 1 μmol/kg dose, read-out: Plasma nucleoside Cmax): 15 to 50 nM; Cmax ([7]; normalized to 1 μmol/kg dose, read-out: Plasma prodrug Cmax): ≤ 15 nM; CC50 (Zluc cells): > 50 µM
5 | CC(C)OC(=O)[C@@H](C)NP(=O)(OC[C@H]1O[C@@H](n2ccc(=O)[nH]c2=O)[C@](C)(Cl)[C@@H]1O)Oc1ccccc1 (single isomer, unassigned; diastereomer 2) [Compound 40i Diastereomer 2] |  |  | ++++ (75% < ++++) | ++++ (1500 < ++++) | ++++ (100 < ++++) | +++ (50% < +++ ≤ 75%) | +++ (500 < +++ ≤ 1500) | +++ (50 < +++ ≤ 100) |  | +++ (500 < +++ ≤ 1500) | +++ (50 < +++ ≤ 100) | 
